The test system of assay [1] is C57BL/6 mice demyelinated with cuprizone. Nature of the assay: In vivo mouse cuprizone assay (new myelin, MBP positive / MOG negative area). The following applies: for effect measured as new myelin generated in response to compound treatment compared to control with no added compound: Regimen A (QD or BID for 14 days via oral gavage), various doses; for effect (new myelin generated compared to control): Regimen A, oral gavage. An excerpt:
Assays for Detecting and Measuring Remyelination Properties of Compounds In Vivo Mouse Cuprizone Assay:
Cuprizone Feeding Protocol:
2 month old female C57BL/6 mice (Stock Number: 000664) were purchased from Jackson Labs and fed for 4-10 months with a 0.2% cuprizone chow (provided by Research Diets, Product # D10020701R, Description AIN-76A Rodent Diet with 0.2% cuprizone) using cuprizone purchased from Sigma (Cat #14690-100G). Chow was provided ad libitum, and refreshed every 4 days to ensure stability of the cuprizone. Mice were maintained on this diet for 4-10 months before initiation of the experiments.
1) 24 hours prior to the start of dosing, 6 to 10 mice were switched from cuprizone chow to normal chow (Picolab rodent diet 20 EXT IRR 5053, irradiated) without added cuprizone. These mice were maintained on normal chow throughout the course of dosing.
2) 6 to 10 mice per group were randomized into new cages such that mice that were housed in one cage during the cuprizone diet were not housed together in one dose group during the study.
3) Mice were dosed with compound in one of two regimens: Regimen A: mice were dosed QD or BID for 14 days via oral gavage. Regimen B: mice were dosed QD or BID for 14 days via IP injection. However, other dosing schedules and/or routes of administration may also be used.
4) On the last day of dosing, dried blood spots were collected at multiple time points following the last dose. Often this was 30 minutes, 2, 6 and 24 hours following the final dose on day 14 via the tail vein.
Perfusion and Sectioning:
1) The day after the last day of dosing, mice were transcardially perfused with 12 ml of PBS (Sigma, P4417) followed by 20 ml of 3.2% paraformaldehyde in PBS (Electron Microscopy Sciences #15714-S). The brains were removed via standard dissection techniques and each was postfixed in 3.2% paraformaldehyde (20 ml) for 24-48 hours at room temperature in sealed scintillation vials.
2) Serial 50 micron sections were collected through the anterior posterior extent of the brain, from just behind the olfactory bulb, through visual cortex using a vibrating microtome, the V-STAR (described in International Publication No. WO 2013/012799 and U.S. Pat. No. 8,967,024 both of which are incorporated herein by reference in their entirety). Sections were collected in phosphate buffered saline (PBS). Vibratome speed was set to 1.1 mm/s and amplitude was set to 0.8 mm.
3) A series of every 24th section was removed for staining yielding 5 sections per brain.
1) Tissue sections were stained using an automated system for processing blots (hereinafter the “blotinator”) (described in WO2011/087646 and U.S. Pat. Nos. 8,337,754 and 8,679,406 each of which is incorporated herein by reference in its entirety). Brain sections were placed in the blotinator plate and bathed in PBS. The blotinator applied primary antibodies (MOG and MBP together) and Hoechst nuclear stain for 12 hours at room temperature with constant shaking.
The following stains were diluted in blocking buffer (described below):
Hoechst nuclear stain (0.5 mg/ml)(bisBenzimide H 33342 trihydrochloride Sigma #33342).
Myelin basic Protein (MBP) antibody (Abcam Cat # ab7349) was diluted at a 1:750 ratio in blocking buffer).
Myelin Oligodendrocyte Glycoprotein (MOG) (R&D systems Cat # AF2439) was diluted at a 1:250 ratio in blocking buffer.
Antibodies were diluted in blocking buffer, which consisted of 0.3% Triton X-100 (Sigma Cat #234729), 0.02% Sodium Azide (Sigma Cat # S2002) and 8% fetal bovine serum in PBS (Sigma Cat # F2442).
2) The blotinator washed the samples 4 times for 5 minutes each with a wash buffer (0.2% Triton X-100 in PBS).
3) The blotinator applied secondary antibodies diluted in blocking buffer and incubated them for 2 hours with constant shaking.
Alexa 488 donkey anti-rat secondary (Life technologies Cat # A-21208) was diluted at 1:1000 in blocking buffer. […]

For assay [2], the system named is primary rat mixed cortical cells. Nature of the assay: In vitro myelination assay (MBP positive myelin strands, fold myelin pixels above background). The assay is classed as cell-based. The following applies: Rattus norvegicus; for fold induction at 1 µM: 1.0 μM compound; for fold induction at 10 µM: 10.0 μM compound. In outline: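 P1 rat cortical cells (neurons, OPCs, oligodendrocytes, astrocytes, microglia) were cultured 14 days at 37 °C with compound, with half-medium changes containing 1× compound on days 6 and 10. Fixed cells were immunostained for MBP and imaged at 10×. Total MBP myelin pixels per well were expressed as fold above no-compound baseline at 1.0 μM and 10.0 μM.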

Setting [3] is: relative to baseline of no added compound, read-out: Fold myelin pixels above background.
[4] abbreviates: relative to baseline of no added compound, read-out: Fold myelin pixels above background, 1.0 μM.
Setting [5] is: relative to baseline of no added compound, read-out: Fold myelin pixels above background, 10.0 μM.
[6] abbreviates: read-out: Fold myelin pixels above background relative to baseline of no added compound.

Like-named read-outs stand apart in the source and are kept apart here.

Regarding `Cc1cc(Nc2ncn(-c3cc(F)cc(F)c3)n2)c(F)c(N2CCN(C3COC3)CC2)c1` [Compound 691, 1-(3,5-Difluorophenyl)-N-(2-fluoro-5-methyl-3-(4-(oxetan-3-yl)piperazin-1-yl)phenyl)-1H-1,2,4-triazol-3-amine], the “effect measured as new myelin generated in response to compound treatment compared to control with no added compound” value in assay [1] is listed as “positive effect”. In addition, the “effect (new myelin generated compared to control)” value in assay [1] (8 mpk), in assay [1] (10 mpk) and in assay [1] (20 mpk) was “positive effect” in each case. Also, in assay [2] (setting [3]), the fold induction at 1 µM is 10 to 100. The fold induction at 10 µM in assay [2] (setting [3]) was in the range of 10 to 100.
`CCc1cc(Nc2ncn(-c3cc(F)cc(F)c3)n2)cc(N2CCN(C3COC3)CC2)c1` [Compound 107, 1-(3,5-difluorophenyl)-N-[3-ethyl-5-[4-(oxetan-3-yl)piperazin-1-yl]phenyl]-1,2,4-triazol-3-amine]: in assay [1], the “effect measured as new myelin generated in response to compound treatment compared to control with no added compound” value was “positive effect”. Also, the “effect (new myelin generated compared to control)” value in assay [1] (30 mpk) and in assay [1] (90 mpk) was “positive effect” each time. Also, the fold induction at 1 µM in assay [2] (setting [4]) fell in the range of 1000 to 10000. Besides, the fold induction at 10 µM in assay [2] (setting [5]) lay in the range of 1000 to 10000.
`Fc1ccc(-n2cnc(Nc3cc(C(F)F)cc(N4CCN(C5COC5)CC4)n3)n2)cc1F` [Compound 524, 4-(difluoromethyl)-N-[1-(3,4-difluorophenyl)-1,2,4-triazol-3-yl]-6-[4-(oxetan-3-yl)piperazin-1-yl]pyridin-2-amine]: the “effect measured as new myelin generated in response to compound treatment compared to control with no added compound” value in assay [1] is on record as “positive effect”. Besides, the “effect (new myelin generated compared to control)” value in assay [1] (10 mpk), in assay [1] (20 mpk) and in assay [1] (30 mpk) was “positive effect” throughout. For the same compound, in assay [2] (setting [3]), the fold induction at 1 µM is 100 to 1000. Further, the fold induction at 10 µM in assay [2] (setting [3]) was in the range of 100 to 1000.
In the case of `CCc1cc(Nc2ncn(-c3cnccn3)n2)cc(N2CCN(C3COC3)CC2)c1` [Compound 48, N-[3-ethyl-5-[4-(oxetan-3-yl)piperazin-1-yl]phenyl]-1-pyrazin-2-yl-1,2,4-triazol-3-amine], in assay [1], the “effect measured as new myelin generated in response to compound treatment compared to control with no added compound” value is on record as “positive effect”. Moreover, the “effect (new myelin generated compared to control)” value in assay [1] (30 mpk), in assay [1] (50 mpk) and in assay [1] (100 mpk) was “positive effect” in each case. Further, the fold induction at 1 µM in assay [2] (setting [4]) lay in the range of 100 to 1000. Moreover, the fold induction at 10 µM in assay [2] (setting [5]) fell in the range of 100 to 1000.
On to `Fc1cc(F)cc(-n2cnc(Nc3cc(C(F)F)cc(N4CCN(C5COC5)CC4)n3)n2)c1` [Compound 512, 4-(difluoromethyl)-N-[1-(3,5-difluorophenyl)-1,2,4-triazol-3-yl]-6-[4-(oxetan-3-yl)piperazin-1-yl]pyridin-2-amine], for which the “effect measured as new myelin generated in response to compound treatment compared to control with no added compound” value in assay [1] is on record as “positive effect”. Besides, the “effect (new myelin generated compared to control)” value in assay [1] (50 mpk) is listed as “positive effect”. Besides, in assay [2] (setting [3]), the fold induction at 1 µM is 100 to 1000 and the fold induction at 10 µM was in the range of 100 to 1000.
Consider `Cc1cc(Nc2ncn(-c3cnccn3)n2)cc(N2CCN(C3COC3)CC2)c1` [Compound 195, N-[3-methyl-5-[4-(oxetan-3-yl)piperazin-1-yl]phenyl]-1-pyrazin-2-yl-1,2,4-triazol-3-amine], for which, in assay [1], the “effect measured as new myelin generated in response to compound treatment compared to control with no added compound” value is listed as “positive effect”. Besides, the “effect (new myelin generated compared to control)” value in assay [1] (60 mpk) and in assay [1] (100 mpk) was “positive effect” in each case. Besides, the fold induction at 1 µM in assay [2] (setting [4]) was in the range of 100 to 1000. Besides, the fold induction at 10 µM in assay [2] (setting [5]) was 100 to 1000.
Take `Cc1cc(Nc2ncn(-c3ccccc3)n2)cc(N2CCN(C)CC2)c1` [Compound 247, N-[3-methyl-5-(4-methylpiperazin-1-yl)phenyl]-1-phenyl-1,2,4-triazol-3-amine]: the “effect measured as new myelin generated in response to compound treatment compared to control with no added compound” value in assay [1] is listed as “positive effect”. Further, the “effect (new myelin generated compared to control)” value in assay [1] (10 mpk), in assay [1] (25 mpk) and in assay [1] (50 mpk) was “positive effect” each time. Moreover, the fold induction at 1 µM in assay [2] (setting [4]) was in the range of 100 to 1000. For the same compound, in assay [2] (setting [5]), the fold induction at 10 µM was no more than 1.
Consider `Cc1cc(Nc2ncn(-c3cc(F)cc(F)c3)n2)cc(N2CCN(C3(C)COC3)CC2)c1` [Compound 215, 1-(3,5-difluorophenyl)-N-[3-methyl-5-[4-(3-methyloxetan-3-yl)piperazin-1-yl]phenyl]-1,2,4-triazol-3-amine], for which the “effect measured as new myelin generated in response to compound treatment compared to control with no added compound” value in assay [1] is on record as “positive effect”. Besides, the “effect (new myelin generated compared to control)” value in assay [1] (30 mpk) and in assay [1] (90 mpk) was “positive effect” in each case. Also, in assay [2] (setting [4]), the fold induction at 1 µM was 10 to 100. Further, the fold induction at 10 µM in assay [2] (setting [5]) lay in the range of 10 to 100.
Consider `Cc1cc(Nc2ncn(-c3cc(F)cc(F)c3)n2)cc(O[C@H]2CCN(C3COC3)C2)c1` [Compound 304, 1-(3,5-difluorophenyl)-N-[3-methyl-5-[(3S)-1-(oxetan-3-yl)pyrrolidin-3-yl]oxy-phenyl]-1,2,4-triazol-3-amine], for which the fold induction at 1 µM in assay [2] (setting [4]) lay in the range of 100 to 1000. In addition, in assay [2] (setting [5]), the fold induction at 10 µM was no more than 1.
The matching figures for `Cc1cc(Nc2ncn(-c3ccccc3)n2)cc(C2CCCN(C3CC3)C2)c1` (stereo not drawn) [Compound 340, N-[3-(1-cyclopropyl-3-piperidyl)-5-methyl-phenyl]-1-phenyl-1,2,4-triazol-3-amine]: 100 to 1000 and no more than 1.
As for `Cc1cc(Nc2ncn(-c3cc(F)cc(F)c3)n2)nc(OCC2COC2)c1` [Compound 1069, N-[1-(3,5-difluorophenyl)-1,2,4-triazol-3-yl]-4-methyl-6-(oxetan-3-ylmethoxy)pyridin-2-amine], in assay [2] (setting [6]), the fold induction at 1 µM lay within 1 to 10 and the fold induction at 10 µM lay in the range of 1 to 10.
For the compound `CC(=O)N1CCN(c2cc(C)cc(Nc3ncn(-c4cc(F)cc(F)c4)n3)c2)CC1` [Compound 370, 1-[4-[3-[[1-(3,5-difluorophenyl)-1,2,4-triazol-3-yl]amino]-5-methyl-phenyl]piperazin-1-yl]ethanone], the fold induction at 1 µM in assay [2] (setting [4]) fell in the range of 1000 to 10000. In addition, the fold induction at 10 µM in assay [2] (setting [5]) lay in the range of 100 to 1000.

The record behind these values is patent US10766869B2, “Triazoles for the treatment of demyelinating dieases” (Vertex Pharmaceuticals Incorporated, priority 2015, dated 2020).
